Patent publication US9980943B2, “Methods of treating muscular dystrophy” (BOARD OF REGENTS OF THE NEVADA SYSTEM OF HIGHER EDUCATION, …, priority 2013, dated 2018)
Where two headings read alike, the source gives them in different places.

Tested on: α7 integrin (LacZ reporter in α7LacZ+/− myoblasts)
Test: qHTS of the LOPAC library and MLSMR (online screen, α7LacZ+/− myoblasts)
Conditions: for activation at 0.307 µM / activation at 1.53 µM / activation at 7.66 µM / activation at 38.3 µM / Emax / EC50: Mus musculus, Myoblast; for activation at 0.307 µM: read-out: Activity at 0.307 uM [%] **; for activation at 1.53 µM: read-out: Activity at 1.530 uM [%] **; for activation at 7.66 µM: read-out: Activity at 7.660 uM [%] **; for activation at 38.3 µM: read-out: Activity at 38.30uM [%] **; for EC50: read-out: Fit LogAC50 (converted)
[1] = 48 h, read-out: Fit Infinite Activity [%]

Work on Cc1cccn2c(=O)c3cc(C(=O)NC4CCCCC4)n(C)c3nc12 [Compound 40] yielded an activation at 0.307 µM (48 h) of -13.7%, an activation at 1.53 µM (48 h) of 5.58% and an activation at 7.66 µM (48 h) of 25.2%. It also gave an activation at 38.3 µM (48 h) of 427%, an Emax [1] of 433% and an EC50 of 14.1 µM.

CS(=O)(=O)Cc1cccc(C(=O)NN(c2ccccc2)c2ccccc2)c1 [Compound 102] showed an activation at 0.307 µM (48 h) of 10.3%, an activation at 1.53 µM (48 h) of 11.3% and an activation at 7.66 µM (48 h) of 24.3%. It also gave an activation at 38.3 µM (48 h) of 159%, an Emax [1] of 160% and an EC50 of 12.6 µM. For the same compound, the Emax (read-out: Max Response [%]) was 159%.

Work on O=C(COC(=O)c1cc2ccccc2oc1=O)Nc1ccc(F)cc1F [Compound 60] yielded an activation at 0.307 µM (48 h) of -11%, an activation at 1.53 µM (48 h) of 4.45% and an activation at 7.66 µM (48 h) of 78.3%. It also gave an activation at 38.3 µM (48 h) of 115%, an Emax [1] of 116% and an EC50 of 4.47 µM. For the same compound, the Emax (read-out: Max Response [%]) was 115%.

With COc1ccc(C(=O)CN2CCCCC2)cc1 [Compound 181] the activation at 0.307 µM (48 h) was 12.4%, the activation at 1.53 µM (48 h) was 12.9% and the activation at 7.66 µM (48 h) was 18.9%. For the same compound, the activation at 38.3 µM (48 h) was 92.8%, the Emax [1] was 93% and the Emax (read-out: Max Response [%]) was 92.8%.

With COc1ccc(O)c(/C=N/NC(=O)c2cc(O)nc3ccccc23)c1 [Compound 179] the activation at 0.307 µM (48 h) was -35.4%, the activation at 1.53 µM (48 h) was -32.2% and the activation at 7.66 µM (48 h) was 20.9%. It also gave an activation at 38.3 µM (48 h) of 46.8%, an Emax [1] of 48.4% and an Emax (read-out: Max Response [%]) of 46.8%.

Compound O=C(Cn1nc(-c2ccc(Cl)cc2)ccc1=O)N1CCC2(CC1)OCCO2 [Compound 221] has an activation at 0.307 µM (48 h) of 6.38%, an activation at 1.53 µM (48 h) of 7.87% and an activation at 7.66 µM (48 h) of 16.8%. It also gave an activation at 38.3 µM (48 h) of 66.1%, an Emax [1] of 66.5% and an Emax (read-out: Max Response [%]) of 66.1%.

For CC(NC(=O)c1cn(C)c2ccc(S(=O)(=O)N3CCCC3)cc2c1=O)c1ccccc1 (stereo not shown) [Compound 28], the activation at 0.307 µM (48 h) was -36%, the activation at 1.53 µM (48 h) was -20.6% and the activation at 7.66 µM (48 h) was 48.9%. For the same compound, the activation at 38.3 µM (48 h) was 54.7%, the Emax [1] was 55.3% and the EC50 was 2.82 µM.

Cc1ccc(NCc2nnc(SCC(=O)Nc3nnc(C)s3)n2C)cc1 [Compound 51] gave an activation at 0.307 µM (48 h) of -27.9%, an activation at 1.53 µM (48 h) of -17.6% and an activation at 7.66 µM (48 h) of 31.4%. For the same compound, the activation at 38.3 µM (48 h) was 249%, the Emax [1] was 250% and the EC50 was 10 µM.

Work on O=C(COC(=O)Cn1cnc2ccccc21)Nc1cccc([N+](=O)[O-])c1 [Compound 119] yielded an activation at 0.307 µM (48 h) of -17.1%, an activation at 1.53 µM (48 h) of -14.7% and an activation at 7.66 µM (48 h) of 0.628%. For the same compound, the activation at 38.3 µM (48 h) was 112%, the Emax [1] was 112% and the EC50 was 11.2 µM. It also gave an Emax (read-out: Max Response [%]) of 112%.

In the case of C/C(=N\NC(=O)c1cc(C)oc1C)c1ccc2ccccc2c1 [Compound 149], the activation at 0.307 µM (48 h) is reported as -0.126%, the activation at 1.53 µM (48 h) is reported as 8.59% and the activation at 7.66 µM (48 h) is reported as 37%. The activation at 38.3 µM (48 h) was 68%, the Emax [1] was 82.4% and the Emax (read-out: Max Response [%]) was 68%.

CNc1cc([N+](=O)[O-])ccc1OCc1ccccc1 [Compound 79] gave an activation at 0.307 µM (48 h) of 1.52%, an activation at 1.53 µM (48 h) of 16.2% and an activation at 7.66 µM (48 h) of 57.3%. It also gave an activation at 38.3 µM (48 h) of 80.2%, an Emax [1] of 84.8% and an EC50 of 4.47 µM. It also gave an Emax (read-out: Max Response [%]) of 80.2%.

Compound O=Cc1ccc(C(=O)OCC(=O)N2CCCC2)cc1 [Compound 35] has an activation at 0.307 µM (48 h) of 0%, an activation at 1.53 µM (48 h) of 12% and an activation at 7.66 µM (48 h) of 71.5%. The activation at 38.3 µM (48 h) was 71.8%, the Emax [1] was 72.6% and the EC50 was 2.51 µM.

In the case of Cc1ccc(S(=O)(=O)N2CN(CC3CCCO3)c3nc4ccccc4nc32)c(C)c1 (stereo not shown) [Compound 91], the activation at 0.307 µM (48 h) is reported as -19.2%, the activation at 1.53 µM (48 h) is reported as -13.3% and the activation at 7.66 µM (48 h) is reported as 6.57%. For the same compound, the activation at 38.3 µM (48 h) was 121%, the Emax [1] was 122% and the EC50 was 11.2 µM. It also gave an Emax (read-out: Max Response [%]) of 121% and a Score (Table 8 Compound data) of 43.

COC(=O)C(=O)C/C(=N/Nc1ncnc2ccccc12)c1ccc(Cl)cc1 [Compound 18] showed an activation at 0.307 µM (48 h) of 7.75%, an activation at 1.53 µM (48 h) of 30.6% and an activation at 7.66 µM (48 h) of 358%. The EC50 was 10 µM.

With Cc1cc(-c2ccccc2)n2nc(N)nc2n1 [Compound 127] the activation at 0.307 µM (48 h) was -20%, the activation at 1.53 µM (48 h) was -16.1% and the activation at 7.66 µM (48 h) was -2.95%. For the same compound, the activation at 38.3 µM (48 h) was 151%, the Emax [1] was 152% and the Emax (read-out: Max Response [%]) was 151%.

Work on CCNC(=O)COC(=O)c1cc(-c2ccco2)nc2ccccc12 [Compound 175] yielded an activation at 0.307 µM (48 h) of -59.9%, an activation at 1.53 µM (48 h) of -45.5% and an activation at 7.66 µM (48 h) of 5.39%. For the same compound, the activation at 38.3 µM (48 h) was 48.1%, the Emax [1] was 54% and the Emax (read-out: Max Response [%]) was 48.1%.

Cc1ccc(NC(=O)NCc2nc3ccccc3n2C)cc1 [Compound 77] showed an activation at 0.307 µM (48 h) of -33.5%, an activation at 1.53 µM (48 h) of -19.7% and an activation at 7.66 µM (48 h) of 54.7%. The activation at 38.3 µM (48 h) was 85.1%, the Emax [1] was 87.1% and the EC50 was 4.47 µM. The Emax (read-out: Max Response [%]) was 85.1%.

Cc1ccc(C2Nc3cccc4cccc(c34)N2)s1 [Compound 24] showed an activation at 0.307 µM (48 h) of 5.89%, an activation at 1.53 µM (48 h) of 19.6% and an activation at 7.66 µM (48 h) of 73.1%. The activation at 38.3 µM (48 h) was 81.3%, the Emax [1] was 82.7% and the EC50 was 3.16 µM.

CC(C)NC(=O)CN1CCN(C(=O)CCl)CC1 [Compound 62] was tested, and the activation at 0.307 µM (48 h) was -21.4%, the activation at 1.53 µM (48 h) was -18% and the activation at 7.66 µM (48 h) was 77.9%. For the same compound, the activation at 38.3 µM (48 h) was 155%, the Emax [1] was 162% and the EC50 was 7.08 µM. The Emax (read-out: Max Response [%]) was 155%.

N=C(NOC(=O)COc1cc(Cl)c(Cl)cc1Cl)c1ccncc1 [Compound 125] gave an activation at 0.307 µM (48 h) of 0%, an activation at 1.53 µM (48 h) of 9.26% and an activation at 7.66 µM (48 h) of 50.4%. The activation at 38.3 µM (48 h) was 108%, the Emax [1] was 134% and the Emax (read-out: Max Response [%]) was 108%.

In the case of Cc1cccc(OCc2nc(C#N)c(N3CCCC3)o2)c1 [Compound 2], the activation at 0.307 µM (48 h) is reported as 9.52%, the activation at 1.53 µM (48 h) is reported as 57% and the activation at 7.66 µM (48 h) is reported as 175%. It also gave an activation at 38.3 µM (48 h) of 223%, an Emax [1] of 231% and an EC50 of 3.55 µM.

For CC(C)(C)c1ccc(C(=O)OCC(=O)Nc2sc3c(c2C#N)CCC3)cc1 [Compound 85], the activation at 0.307 µM (48 h) was 3.25%, the activation at 1.53 µM (48 h) was 13.3% and the activation at 7.66 µM (48 h) was 71.6%. For the same compound, the activation at 38.3 µM (48 h) was 101%, the Emax [1] was 103% and the EC50 was 5.01 µM. The Emax (read-out: Max Response [%]) was 101%.

In the case of CC(C)(CC(=O)O)CC(=O)N1CCCN(c2nccc(C(F)(F)F)n2)CC1 [Compound 56], the activation at 0.307 µM (48 h) is reported as 24%, the activation at 1.53 µM (48 h) is reported as 38.1% and the activation at 7.66 µM (48 h) is reported as 86.7%. The activation at 38.3 µM (48 h) was 108%, the Emax [1] was 111% and the EC50 was 3.98 µM. It also gave an Emax (read-out: Max Response [%]) of 108%.

CC(=O)Nc1ccc(N(C(=O)c2cnccn2)C(C(=O)NC2CCCCC2)c2ccc(F)cc2)cc1 (stereo not shown) [Compound 44] was tested, and the activation at 0.307 µM (48 h) was -13.5%, the activation at 1.53 µM (48 h) was -18.8% and the activation at 7.66 µM (48 h) was 38.1%. For the same compound, the activation at 38.3 µM (48 h) was 308%, the Emax [1] was 311% and the EC50 was 11.2 µM.

With O=C(CNC(=O)c1cccc(F)c1)N/N=C/c1cc(Br)ccc1OCc1ccccc1 [Compound 216] the activation at 0.307 µM (48 h) was 8.28%, the activation at 1.53 µM (48 h) was 20.8% and the activation at 7.66 µM (48 h) was 44%. For the same compound, the activation at 38.3 µM (48 h) was 71.7%, the Emax [1] was 94.4% and the EC50 was 10 µM. The Emax (read-out: Max Response [%]) was 71.7%.

With O=[N+]([O-])c1ccc(N2CCN(c3ccccc3F)CC2)nc1 [Compound 49] the activation at 0.307 µM (48 h) was 2.3%, the activation at 1.53 µM (48 h) was 15.5% and the activation at 7.66 µM (48 h) was 102%. The activation at 38.3 µM (48 h) was 151%, the Emax [1] was 154% and the EC50 was 5.62 µM.

Work on COc1ccc(-c2cc(COc3ccccc3)on2)cc1 [Compound 188] yielded an activation at 0.307 µM (48 h) of 0%, an activation at 1.53 µM (48 h) of 0.795% and an activation at 7.66 µM (48 h) of 20%. It also gave an activation at 38.3 µM (48 h) of 88.1%, an Emax [1] of 88.2% and an EC50 of 10 µM. The Emax (read-out: Max Response [%]) was 88.1%.
